For the assay, the system named is mouse peritoneal macrophages. Briefly: In vitro experiment using mouse peritoneal macrophages: suppression of foaming, cholesterol ester (CE) yield. Conditions: for inhibitory effect on macrophages (rate of cholesterol ester synthesis), in words: mouse peritoneal macrophages, 5 μM. The format is cell-based.
[1] abbreviates: test compound 5 μM with liposomes, 16 hours, cholesterol ester yield relative to control without test compound = 100%, smaller value = more potent suppression.

Like-named read-outs stand apart in the source and are kept apart here.

Turning to “1-(5-(benzimidazoyl-2-thio)pentyl)piperidine [Compound 1]”, the “CE yield (%)” value was determined as 22%. Still for that read-out and setting: to “1-(5-benzimidazolyl-2-thio)pentyl-1,2,3,4-tetrahydro-quinoline [Compound 34]” belongs 21%.

Consider “2-(5-(4-morpholino))-5-chlorobenzimidazole [Compound 20]”, for which, under setting [1], the “CE yield (%)” value amounted to 25%. For the molecule “2-(5-(4-morpholino))-5-methoxybenzimidazole [Compound 19]”, the “CE yield (%)” value under setting [1] is listed as 24%. The same measure, in the same setting: to “2-(5-(4-morpholino))-5-methylbenzimidazole [Compound 9]” belongs 21%. Turning to “2-(6-(1-(4-cyano-4-phenyl)piperidino)heptyl)-1H-benzimidazole [Compound 57]”, the “CE yield (%)” value was determined as 22%.

With “2-(6-(1-(4-hydroxy-4-phenyl)piperidino)heptyl)-1H-benzimidazole [Compound 58]”, the “CE yield (%)” value is listed as 20%. Consider “4-(5-(benzimidazolyl-2-thio)pentyl)morpholine [Compound 2]”, for which the “CE yield (%)” value under setting [1] amounted to 18%. The same measure, in the same setting: to `CCCn1c(SCCCCCN2CCOCC2)nc2ccccc21` [Compound 6, 4-(5-(1-propylbenzimidazolyl-2-thio)pentyl)morpholine] belongs 27%. Same read-out and setting: to `CCC(=O)n1c(SCCCCCN2CCOCC2)nc2ccccc21` [Compound 7, 4-(5-(1-propionylbenzimidazolyl-2-thio)pentyl)morpholine] belongs 22%; to `O=C(CCCCSc1nc2ccccc2[nH]1)N1CCCc2ccccc21` [Compound 33, 1-(5-(4-benzimidazolyl-2-thio)valeryl)-1,2,3,4-tetrahydro-quinoline], 18%. On the same count and under the same terms, next, `c1ccc2[nH]c(SCCOCCN3CCOCC3)nc2c1` [Compound 50, 4-(2-(2-benzimidazoyl-2-thio)ethoxy)ethylmorpholine]: 4.6%. Regarding `N#CC1(c2ccccc2)CCN(CCCCCOc2nc3ccccc3[nH]2)CC1` [Compound 55, 1-(5-(benzimidazoyl-2-oxy)pentyl)-4-cyano-4-phenyl-piperidine], the “CE yield (%)” value came to 21%. As for `CC(C)Oc1cccc(OC(C)C)c1NC(=O)CN1CCN(CCCSc2nc3ccccc3[nH]2)CC1` [Ref. 1, reference compound], the “inhibitory effect on macrophages (rate of cholesterol ester synthesis), in words” value was “almost no inhibitory effect”. In addition, the “CE yield (%)” value under setting [1] was determined as 95%. The like results for `CC(C)c1cc(C(C)C)c(NC(=O)CN2CCN(CCSc3nc4ccccc4[nH]3)CC2)c(C(C)C)c1` [Ref. 2, reference compound] were, in that order, “almost no inhibitory effect” and 98%. As to `CCCCCCN(CCCCCSc1nc2ccccc2[nH]1)C(=O)Nc1ccc(F)cc1F` [Ref. 3, reference compound], the “inhibitory effect on macrophages (rate of cholesterol ester synthesis), in words” value is on record as “almost no inhibitory effect”. For the same molecule, the “CE yield (%)” value under setting [1] is on record as 78%. The like results for `O=C(CCN1CCCCC1)CSc1nc2ccccc2[nH]1` [Ref. 4, reference compound] were, in that order, “completely inactive” and 89%. The like results for `COc1ccc2[nH]c(SCCN3CCNCC3)nc2c1` [Ref. 5, reference compound] were, in that order, “completely inactive” and 102%.
